Laboratory results taken from PMC4147587, “Synthesis and Analgesic Effects of μ-TRTX-Hhn1b on Models of Inflammatory and Neuropathic Pain” (Toxins, 2014).
“Also recorded” adds a separate entry of the source. Like-named read-outs stand apart in the source and are kept apart here.

System: SNI-induced mechanical allodynia in rats
Assay type: in vivo, rat (Sprague-Dawley)
Conditions: for withdrawal threshold to von Frey hair: 200 μg/kg i.p., mean ± SEM, n = 6
Description: The spared nerve injury was produced as described previously by Decosterd and Woolf. The rats (male, weighing 180–220 g) were anesthetized with ketamine (300 mg/kg) and placed on a pad. Aseptic techniques were used, and the sciatic nerve and its three terminal branches, including the sural, common peroneal and tibial nerves, were exposed, ligated and transected. Muscle and skin were closed with 4-0 polydiaxone and wound clips. Sham controls involved the exposure of the sciatic nerve and its branches without any lesion.
Allodynia was assessed 3 days after SNI surgery, and only rats that developed allodynia, as defined by a significant decrease in their mechanical threshold using von Frey filament, were used. Tactile allodynia was assessed with calibrated von Frey filaments (Stoelting, Wood Dale, IL, USA) using an up-down paradigm. Mechanical sensitivity was determined by applying a series of twenty calibrated von Frey filaments (0.008–2 g, 2–60 g) to the plantar aspect of the left hind paw. […] A response was indicated by brisk withdrawal of the hind paw.

SMILES: CC[C@H](C)[C@H](NC(=O)[C@H](CCC(=O)O)NC(=O)[C@H](Cc1ccc(O)cc1)NC(=O)[C@H](CCCCN)NC(=O)[C@@H]1CSSC[C@@H]2NC(=O)[C@H](CCC(N)=O)NC(=O)[C@H](CC(=O)O)NC(=O)[C@H](CC(N)=O)NC(=O)[C@H](CO)NC(=O)[C@@H]3CCCN3C(=O)[C@H](CC(N)=O)NC(=O)[C@@H]3CSSC[C@H](NC(=O)[C@H](C(C)C)NC(=O)[C@H](CC(C)C)NC(=O)[C@H](CC(N)=O)NC(=O)[C@H](CO)NC(=O)[C@H](CO)NC(=O)[C@H](CCCCN)NC(=O)[C@H](CSSC[C@H](NC(=O)[C@@H](N)CCC(=O)O)C(=O)N[C@@H](CC(C)C)C(=O)NCC(=O)N[C@@H](Cc4ccccc4)C(=O)NCC(=O)N[C@@H](CCCCN)C(=O)NCC(=O)N3)NC2=O)C(=O)N[C@@H](CO)C(=O)N[C@@H](CCCNC(=N)N)C(=O)N[C@@H](CCCCN)C(=O)N[C@@H](Cc2c[nH]cn2)C(=O)N[C@@H](CCCNC(=N)N)C(=O)N[C@@H](Cc2c[nH]c3ccccc23)C(=O)N1)C(N)=O [μ-TRTX-Hhn1b]
- reversal of SNI-induced mechanical allodynia (50 µg/kg, 100 µg/kg or 200 µg/kg i.p., n = 6 per group): depressed in a dose-dependent manner; also recorded: significantly reversed SNI-induced allodynia
- withdrawal threshold to von Frey hair (60 min after injection, saline 1.4 ± 0.4 g, p < 0.01): 8.8 ± 0.9 g
- withdrawal threshold to von Frey hair (100 min after injection, p < 0.05): 4.0 ± 0.6 g
- duration of antinociceptive effect (i.p.): more than 100 min
- duration of antinociceptive effect relative to mexiletine (i.p.): about two-fold longer than that of mexiletine
